Source: ChEMBL document CHEMBL1152742, “Morpholine-based RGD-cyclopentapeptides as alphavbeta3/alphavbeta5 integrin ligands: role of configuration towards receptor binding affinity” (Bioorg Med Chem, 2009)
pIC50: −log10 of the molar value.

Assays:
Integrin alpha-V/beta-3 = Integrin alpha-V/beta-3 (Homo sapiens, UniProt P05106+P06756)
Description: Displacement of [125I]echistatin from integrin alphaVbeta3 receptor in human placenta by microplate scintillation counter

[1] = target: Integrin alpha-V/beta-5 (Homo sapiens); assay: Displacement of [125I]echistatin from integrin alphaVbeta5 receptor in human placenta by microplate scintillation counter

Chain of Integrin alpha-V/beta-3 (P05106 27-788 limits assumed): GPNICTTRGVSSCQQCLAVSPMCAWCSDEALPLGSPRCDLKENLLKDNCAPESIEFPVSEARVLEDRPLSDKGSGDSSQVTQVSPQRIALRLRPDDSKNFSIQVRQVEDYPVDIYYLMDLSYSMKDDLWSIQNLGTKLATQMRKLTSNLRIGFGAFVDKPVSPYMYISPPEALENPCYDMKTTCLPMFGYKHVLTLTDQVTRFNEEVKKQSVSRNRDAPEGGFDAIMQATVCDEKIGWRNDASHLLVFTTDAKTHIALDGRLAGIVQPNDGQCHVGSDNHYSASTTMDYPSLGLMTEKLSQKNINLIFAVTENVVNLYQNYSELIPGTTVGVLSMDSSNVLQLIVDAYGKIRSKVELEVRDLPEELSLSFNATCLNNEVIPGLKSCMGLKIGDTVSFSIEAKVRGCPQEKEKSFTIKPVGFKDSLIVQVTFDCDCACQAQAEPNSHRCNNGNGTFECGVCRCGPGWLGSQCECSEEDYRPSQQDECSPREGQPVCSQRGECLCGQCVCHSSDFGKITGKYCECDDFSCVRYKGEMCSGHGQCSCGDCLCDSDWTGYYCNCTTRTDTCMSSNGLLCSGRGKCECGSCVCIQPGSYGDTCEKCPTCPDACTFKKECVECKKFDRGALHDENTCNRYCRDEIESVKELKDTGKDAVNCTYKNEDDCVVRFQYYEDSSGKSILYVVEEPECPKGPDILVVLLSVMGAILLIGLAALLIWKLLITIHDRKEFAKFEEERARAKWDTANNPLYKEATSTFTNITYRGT
Chain of Integrin alpha-V/beta-3 (P06756 31-889 partner limits assumed): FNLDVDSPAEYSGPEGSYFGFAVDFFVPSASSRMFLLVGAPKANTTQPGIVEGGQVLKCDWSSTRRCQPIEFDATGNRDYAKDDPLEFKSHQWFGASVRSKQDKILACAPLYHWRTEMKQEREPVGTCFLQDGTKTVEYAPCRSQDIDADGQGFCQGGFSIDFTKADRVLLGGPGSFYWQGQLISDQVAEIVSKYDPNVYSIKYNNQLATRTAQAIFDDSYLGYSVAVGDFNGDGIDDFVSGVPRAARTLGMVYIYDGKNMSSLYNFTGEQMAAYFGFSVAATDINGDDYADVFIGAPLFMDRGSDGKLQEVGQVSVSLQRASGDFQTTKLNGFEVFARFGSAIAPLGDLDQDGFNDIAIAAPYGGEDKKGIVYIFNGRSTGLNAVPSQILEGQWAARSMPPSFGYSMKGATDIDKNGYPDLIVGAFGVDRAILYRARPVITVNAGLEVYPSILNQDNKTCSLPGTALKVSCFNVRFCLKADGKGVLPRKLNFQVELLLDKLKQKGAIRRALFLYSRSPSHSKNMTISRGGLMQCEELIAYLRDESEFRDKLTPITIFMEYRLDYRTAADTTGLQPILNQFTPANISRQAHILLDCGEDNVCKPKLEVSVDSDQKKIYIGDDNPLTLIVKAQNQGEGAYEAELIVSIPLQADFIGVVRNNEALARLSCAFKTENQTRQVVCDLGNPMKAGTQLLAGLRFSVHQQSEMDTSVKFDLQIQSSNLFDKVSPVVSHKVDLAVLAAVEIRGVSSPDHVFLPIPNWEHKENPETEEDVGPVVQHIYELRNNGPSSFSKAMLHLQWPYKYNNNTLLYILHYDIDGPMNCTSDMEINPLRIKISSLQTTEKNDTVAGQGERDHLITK
Chain of Integrin alpha-V/beta-3 (P06756 891-1048 partner limits assumed): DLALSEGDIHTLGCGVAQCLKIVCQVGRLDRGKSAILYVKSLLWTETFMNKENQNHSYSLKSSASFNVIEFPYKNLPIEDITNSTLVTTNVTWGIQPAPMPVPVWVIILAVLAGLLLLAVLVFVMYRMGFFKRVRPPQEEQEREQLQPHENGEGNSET

With `NC(N)=NCCC[C@@H]1NC(=O)CNC(=O)[C@H](CC(=O)O)N[C@@H]2CCC[C@@H]3CC[C@@H](C1=O)N3C2=O` as the compound, how does the pIC50 (Integrin alpha-V/beta-3) read?
Its pIC50 is 8.25.

And the pIC50 [1]?
The pIC50 was 9.05.
